Data: ChEMBL document CHEMBL1201862, “PubChem BioAssay data set” (2004)
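Where inhibition never reached the appropriate level, the endpoint shown equals the highest concentration tested. Otherwise, values were interpolated linearly from a five-concentration, 48-hour dose response in 96-well plates. GI50 marks 50% less growth.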 Calls of active or inactive are those of the source. No stated cut-off is given here; in the data, active = GI50 up to about 1.1 µM and inactive = higher.

What was measured:
Assay in all cases: inhibition of tumour cell growth, NCI panel, 48 h
[1] = test system: SK-MEL-5
[2] = test system: BT-549
[3] = test system: NCI/ADR-RES
[4] = test system: OVCAR-3
[5] = test system: HCT-116
[6] = test system: HOP-62
[7] = test system: SK-MEL-2
[8] = test system: RXF 393
[9] = test system: DU-145
[10] = test system: UO-31
[11] = test system: K562
[12] = test system: MCF7
[13] = test system: MDA-MB-435
[14] = test system: UACC-62
[15] = test system: SF-268
[16] = test system: ACHN
[17] = test system: 786-0
[18] = test system: EKVX
[19] = test system: UACC-257
[20] = test system: U-251
[21] = test system: TK-10
[22] = test system: M14
[23] = test system: SNB-75
[24] = test system: CAKI-1
[25] = test system: CCRF-CEM
[26] = test system: SW-620
[27] = test system: MDA-N
[28] = test system: T47D
[29] = test system: SN12C
[30] = test system: HCT-15
[31] = test system: HCC 2998
[32] = test system: SF-295
[33] = test system: PC-3
[34] = test system: HL-60
[35] = test system: MDA-MB-231
[36] = test system: COLO 205
[37] = test system: SF-539
[38] = test system: HT-29
[39] = test system: IGROV-1
[40] = test system: OVCAR-8
[41] = test system: OVCAR-4
[42] = test system: HOP-92
[43] = test system: A498
[44] = test system: SNB-19
[45] = test system: A549
[46] = test system: MOLT-4
[47] = test system: KM12
[48] = test system: OVCAR-5
[49] = test system: SK-OV-3
[50] = test system: SK-MEL-28
[51] = test system: NCI-H460
[52] = test system: RPMI-8226
[53] = test system: LOX IMVI
[54] = test system: NCI-H23
[55] = test system: NCI-H522

`COCCCN(Cc1cc(OC)c(OC)c(OC)c1)C(=S)Nc1cccc(Cl)c1` was tested, and the GI50 [1] was 13.9 µM (inactive), the GI50 [2] was 22.6 µM (inactive) and the GI50 [3] was 21.1 µM (inactive). The GI50 [4] was 41.6 µM (inactive), the GI50 [5] was 17.2 µM (inactive) and the GI50 [6] was 42.6 µM (inactive). For the same compound, the GI50 [7] was 23.1 µM (inactive), the GI50 [8] was 26.8 µM (inactive) and the GI50 [9] was 37.7 µM (inactive). The GI50 [10] was 26.1 µM (inactive), the GI50 [11] was 15.7 µM (inactive) and the GI50 [12] was 21.7 µM (inactive). The GI50 [13] was 20.9 µM (inactive), the GI50 [14] was 15.4 µM (inactive) and the GI50 [15] was 19.9 µM (inactive). For the same compound, the GI50 [16] was 28.6 µM (inactive), the GI50 [17] was 26.5 µM (inactive) and the GI50 [18] was 12.3 µM (inactive). For the same compound, the GI50 [19] was 19.6 µM (inactive), the GI50 [20] was 31.8 µM (inactive) and the GI50 [21] was 47 µM (inactive). The GI50 [22] was 23.7 µM (inactive), the GI50 [23] was 25.3 µM (inactive) and the GI50 [24] was 21.5 µM (inactive). For the same compound, the GI50 [25] was 25.3 µM (inactive), the GI50 [26] was 31.8 µM (inactive) and the GI50 [27] was 19.2 µM (inactive). The GI50 [28] was 12.2 µM (inactive), the GI50 [29] was 24.4 µM (inactive) and the GI50 [30] was 16.7 µM. The GI50 [31] was 39.1 µM (inactive), the GI50 [32] was 31.8 µM (inactive) and the GI50 [33] was 25.1 µM (inactive). The GI50 [34] was 17.7 µM (inactive), the GI50 [35] was 26 µM (inactive) and the GI50 [36] was 33.8 µM (inactive). The GI50 [37] was 42.8 µM (inactive), the GI50 [38] was 18.7 µM (inactive) and the GI50 [39] was 34.4 µM (inactive). For the same compound, the GI50 [40] was 25 µM (inactive), the GI50 [41] was 24.4 µM (inactive) and the GI50 [42] was 20.2 µM (inactive). The GI50 [43] was 28.3 µM (inactive), the GI50 [44] was 43.7 µM (inactive) and the GI50 [45] was 29 µM (inactive). The GI50 [46] was 13.4 µM (inactive), the GI50 [47] was 23.1 µM (inactive) and the GI50 [48] was 20.8 µM (inactive). The GI50 [49] was 41 µM (inactive), the GI50 [50] was 27.5 µM (inactive) and the GI50 [51] was 30.1 µM (inactive). The GI50 [52] was 14.9 µM (inactive) and the GI50 [53] was 21.5 µM (inactive).

In the case of `CC(=O)OC1COC(n2c3ccccc3c3ccc4c5ccccc5[nH]c4c32)C(OC(C)=O)C1OC(C)=O` (stereo unspecified), the GI50 [1] is reported as 36 µM (inactive), the GI50 [2] is reported as 89.3 µM (inactive) and the GI50 [4] is reported as 27 µM (inactive). The GI50 [5] was 65.9 µM (inactive), the GI50 [6] was 22.9 µM (inactive) and the GI50 [7] was 58.1 µM (inactive). For the same compound, the GI50 [10] was 38.6 µM (inactive), the GI50 [11] was 0.6 µM (active) and the GI50 [13] was 39.1 µM (inactive). For the same compound, the GI50 [14] was 67.9 µM (inactive), the GI50 [54] was 36.8 µM (inactive) and the GI50 [19] was > 100 µM (inactive). For the same compound, the GI50 [20] was 29.2 µM (inactive), the GI50 [23] was 0.29 µM (active) and the GI50 [24] was 29.2 µM (inactive). For the same compound, the GI50 [25] was 70.3 µM (inactive), the GI50 [26] was 41.2 µM (inactive) and the GI50 [27] was 53.3 µM (inactive). For the same compound, the GI50 [30] was 70 µM, the GI50 [31] was 61.8 µM (inactive) and the GI50 [32] was 15.1 µM (inactive). The GI50 [33] was 27.2 µM (inactive), the GI50 [36] was 39.1 µM (inactive) and the GI50 [38] was 22.3 µM (inactive). The GI50 [39] was 0.0512 µM (active), the GI50 [41] was 37.6 µM (inactive) and the GI50 [42] was 30.1 µM (inactive). The GI50 [43] was 32.8 µM (inactive), the GI50 [55] was 18.2 µM (inactive) and the GI50 [44] was 61.4 µM (inactive). For the same compound, the GI50 [45] was 44.8 µM (inactive), the GI50 [46] was > 100 µM (inactive) and the GI50 [47] was 17.8 µM (inactive). The GI50 [48] was 23.4 µM (inactive), the GI50 [49] was 18.6 µM (inactive) and the GI50 [50] was 37.8 µM (inactive). The GI50 [51] was 21.3 µM (inactive) and the GI50 [52] was 95.7 µM (inactive).
